Columns and labels:
[1] = cited from earlier work
[2] = Cyclic voltammetry, half-wave oxidation potentials; format: physicochemical; settings: for E1/2^+/0 vs. Li^+/0, LiBF4 in PC: 10 mM analyte in 0.5M LiBF4/PC, 100 mV/s; for Oxidation potential higher than EPT, LiPF6/EC/EMC: difference of E1/2^+/0 to EPT in LiPF6/EC/EMC; for Oxidation potential higher than EPT, TBA-PF6/DCM: difference of E1/2^+/0 to EPT in TBA-PF6/DCM
Procedure: The compounds of the present invention provide for components of a redox flow battery system, particularly as part of a catholyte composition. The studies described herein detail their effectiveness for such. The position and reversibility of redox events was determined by cyclic voltammetry (CV), performed in dichloromethane (DCM) containing 0.1 M tetra(n-butyl)ammonium hexafluorophosphate (TBA-PF6) (FIG. 7), in EC/EMC (3:7) containing 1.2 M LiPF6 (FIG. 2), or in propylene carbonate (PC) containing 0.5 M LiBF4 (FIG. 2). Both compounds show reversible first oxidations in all electrolytes. In TBA-PF6/DCM, MEPT (E1/2^+/0=0.30 V vs. Cp2Fe^+/0) and MEEPT (E1/2^+/0=0.29 V vs. Cp2Fe^+/0) oxidize at 0.03 and 0.02 V higher, respectively, than EPT (Table 1). In contrast, though the oxidation potentials of the new compounds were still higher than that of EPT in LiPF6/EC/EMC, a larger difference was observed: MEPT (E1/2^+/0=3.56 V vs. Li^+/0) and MEEPT (E1/2^+/0=3.60 V vs. Li^+/0) oxidized at […] higher, respectively, than EPT (Table 1). The increase in oxidation potential in the lithium-based electrolytes can be attributed to the coordination, through the oligoether side chain, of MEPT to Li^+, a characteristic that is even more pronounced in the case of MEEPT.
(§1) Cyclic voltammetry (CV) experiments were performed using a CH Instruments 600D potentiostat using a three-electrode system in either 100 mM TBAPF6 in anhydrous DCM or in 1.2 M LiPF6 in ethylene carbonate (EC)/ethyl methyl carbonate (EMC) (3:7 wt. ratio) containing […] redox shuttle. Cyclic voltammograms were also recorded in 0.5 M LiBF4 in propylene carbonate (PC) containing 10 mM analyte. Glassy carbon was used as the working electrode, platinum wire as the counter electrode and either freshly anodized Ag/AgCl (in DCM) or lithium metal (in battery electrolyte) as reference electrodes. Oxidation potentials are reported relative to ferrocenium/ferrocene) (Cp2Fe^+/0) in DCM or to Li^+/0 in battery electrolyte. Voltammograms were recorded at a scan rate of 100 mV/s. To determine diffusion coefficients, voltammograms were recorded at variable rates between 5 and 500 mV/s at analyte concentration of 80 mM in 1.2 M LiPF6 in EC/EMC and 10 mM in 0.5 M LiBF4 in PC.

[3] = Cyclic voltammetry at variable scan rates, diffusion coefficients; format: physicochemical; settings: for Diffusion Coefficient, neutral, TBA-PF6 in DCM / Diffusion Coefficient, oxidized, TBA-PF6 in DCM: 10 mM analyte in 100 mM TBA-PF6/DCM, 10 to 200 mV/s; for Diffusion Coefficient, neutral, LiBF4 in PC / Diffusion Coefficient, oxidized, LiBF4 in PC: 10 mM analyte in 0.5M LiBF4/PC; for Diffusion Coefficient, neutral, LiBF4 in PC / Diffusion Coefficient, neutral, LiPF6 in EC/EMC / Diffusion Coefficient, oxidized, LiBF4 in PC / Diffusion Coefficient, oxidized, LiPF6 in EC/EMC: 5 to 500 mV/s; for Diffusion Coefficient, neutral, LiPF6 in EC/EMC / Diffusion Coefficient, oxidized, LiPF6 in EC/EMC: 80 mM analyte in 1.2M LiPF6 in EC/EMC (3:7)
Procedure: MEPT and MEEPT were subjected to CV experiments at variable scan rates in the carbonate-based electrolytes and DCM to determine their diffusion coefficients (FIG. 2, 8). At 80 mM, MEPT and MEEPT diffuse more slowly than EPT. This observation can be explained by the interaction of MEPT and MEEPT with a lithium ion from the electrolyte, which increases the size/molecular weight of the shuttle. Because the additional oxygen in MEEPT enhances the ability for Li^+ chelation, this effect is posited to be responsible for the further reduction in its diffusion rate.
as §1

[4] = Solubility / miscibility in battery electrolyte and organic solvents; format: physicochemical; settings: for Concentration corresponding to 50 wt. % miscibility: 1.2 M LiPF6 in EC/EMC (3:7 wt. ratio)
Description: The compounds of the present invention can be prepared by deprotonation of phenothiazine and a subsequent SN2 reaction with a corresponding alkyl halide. This process has produced MEPT and MEEPT in good yields. The compounds were isolated as colorless oils that were miscible with a variety of organic solvents. Both derivatives were miscible up to 50 wt. % in the common battery electrolyte, 1.2 M LiPF6 in ethylene carbonate/ethyl methyl carbonate (EC/EMC, 3:7 wt. ratio) (Table 1), which corresponds to a concentration of ca. 2 M. In contrast, the solubility of EPT is limited to 0.1 M in the same electrolyte.
Next, to evaluate MEPT and MEEPT as cathode candidates for RFBs, the performance of the redox-active species over multiple charge and discharge cycles was analyzed, albeit in a static environment, using galvanostatic cycling in MEPT/Li and MEEPT/Li coin cells. Here we employed the electrolyte 0.5 M LiBF4 in PC in which both MEPT and MEEPT are miscible at as high as 50 wt. % (Table 1). The positive electrode was composed of graphite felt soaked in catholyte consisting of 10 mM active species in 0.5 M LiBF4 in PC, and Li metal was employed as the negative electrode. The electrodes were separated by a lithiated Nafion membrane. The coin cells were cycled between 3.2 and 3.8 V at a rate of C/5 up to 100% SOC so that the first oxidation would be accessed. The theoretical capacities of EPT, MEPT, and MEEPT are 118 mAh/g, 104 mAh/g, and 89 mAh/g, respectively. The charge and discharge plateaus occur in accordance with the potentials determined by CV; they represent the formation and reversible reduction of the respective radical cations. […] The gap between the charge and discharge capacities may result from crossover of the charged species. […] EPT, MEPT, and MEEPT retained ca. 76%, 68% and 67%, respectively, of the original charge capacity after 30 cycles, over which time the coulombic efficiencies for all three catholytes stabilized at ca. 90%.

[5] = Radical cation stability by UV-vis absorption spectroscopy; format: physicochemical; settings: 0.167 mM radical cation in DCM, oxidation with TBPA-SbCl6, monitored 5 h
Description: The stability of the radical cation—typically the more reactive form of the electro-active material—can be monitored using UV-vis absorption spectroscopy as these species absorb light in the visible region. This method has proven to be useful for the evaluation of redox shuttle candidates for overcharge protection in LIBs, another application in which the radical cation is involved in electron transfer. The stability of the EPT, MEPT, and MEEPT radical cations were compared in dilute dichloromethane solutions after generation through chemical oxidation with tris(4-bromophenyl)aminium hexachloroantimonate (TBPA-SbCl6).
UV-vis spectra were collected using optical glass cuvettes (Starna) with 1 cm path length with an Agilent 8453 diode array spectrometer. Radical cations were generated in anhydrous DCM by the addition of a 1 mL DCM solution of 0.50 mM TBPA-SbCl6 to a 2 mL DCM solution containing 2.5 mM analyte to produce a final solution containing 0.17 mM radical cation with 1.7 mM analyte, which generates 0.17 mM analyte radical cation with a 9-fold excess of neutral analyte. The cuvettes were capped, and spectra were collected for 5 h.

[6] = carbonate-based electrolytes; cited from earlier work
[7] = Cyclic voltammetry, half-wave oxidation potentials; format: physicochemical; settings: for E1/2^+/0 vs. Cp2Fe^+/0 in TBA-PF6 in DCM: 80 mM analyte in 100 mM TBA-PF6/DCM, 100 mV/s scan rate; for E1/2^+/0 vs. Li^+/0, LiPF6 in EC/EMC: 80 mM analyte in 1.2M LiPF6 in EC/EMC (3:7 wt. ratio), 100 mV/s

Compound | Solubility in organic solvents and electrolytes ([1]; organic solvents and electrolytes) | E1/2^+/0 vs. Li^+/0, LiBF4 in PC [2] | Diffusion Coefficient, neutral, TBA-PF6 in DCM [3] | Diffusion Coefficient, neutral, LiBF4 in PC [3] | Diffusion Coefficient, neutral, LiPF6 in EC/EMC [3] | Diffusion Coefficient, oxidized, TBA-PF6 in DCM [3] | Diffusion Coefficient, oxidized, LiBF4 in PC [3] | Diffusion Coefficient, oxidized, LiPF6 in EC/EMC [3] | Solubility 0.5M LiBF4 in PC ([4]; 0.5 M LiBF4 in PC) | Radical cation stability, change of absorption spectra [5] | Oxidation potential vs. Li^+/0 [6] | E1/2^+/0 vs. Cp2Fe^+/0 in TBA-PF6 in DCM [7] | E1/2^+/0 vs. Li^+/0, LiPF6 in EC/EMC [7] | Solubility in organic solvents ([1]; organic solvents) | Oxidation potential higher than EPT, LiPF6/EC/EMC [2] | Oxidation potential higher than EPT, TBA-PF6/DCM [2] | Concentration corresponding to 50 wt. % miscibility [4]
CCN1c2ccc(C(F)(F)F)cc2Sc2cc(C(F)(F)F)ccc21 [BCF3EPT, 3,7-bis(trifluoromethyl)-N-ethylphenothiazine] | 1500 to 2000 mM |  |  |  |  |  |  |  |  |  |  |  |  |  |  |  | 
CCN1c2ccccc2Sc2ccccc21 [EPT, N-ethylphenothiazine, reference compound] |  | 3.60 V | 3.9 ×10^−6 cm^2s^−1 | 1.5 ×10^−6 cm^2s^−1 | 1.0 ×10^−6 cm^2s^−1 | 2.4 ×10^−6 cm^2s^−1 | 1.4 ×10^−6 cm^2s^−1 | 0.7 ×10^−6 cm^2s^−1 | ≤ 0.1M | remain almost unchanged | ca. 3.5 V | 0.27 V | 3.51 V | ca. 0.1 M |  |  | 
COCCOCCN1c2ccccc2Sc2ccccc21 [MEEPT, N-[2-(2-methoxyethoxy)ethyl]phenothiazine] |  | 3.64 V | 2.5 ×10^−6 cm^2s^−1 | 0.7, 0.7 ×10^−6 cm^2s^−1 | 0.2 ×10^−6 cm^2s^−1 | 1.6 ×10^−6 cm^2s^−1 | 0.7, 0.7 ×10^−6 cm^2s^−1 | 0.1 ×10^−6 cm^2s^−1 |  | remain almost unchanged |  | 0.29 V | 3.60 V |  | 0.09 V | 0.02 V | ca. 2 M
COCCN1c2ccccc2Sc2ccccc21 [MEPT, N-(2-methoxyethyl)phenothiazine] |  | 3.64 V | 3.7 ×10^−6 cm^2s^−1 | 1.1 ×10^−6 cm^2s^−1 | 0.4 ×10^−6 cm^2s^−1 | 2.6 ×10^−6 cm^2s^−1 | 1.0 ×10^−6 cm^2s^−1 | 0.2 ×10^−6 cm^2s^−1 |  | remain almost unchanged |  | 0.30 V | 3.56 V |  | 0.06 V | 0.03 V | ca. 2 M

Source: patent US10103402B2, “Liquid phenothiazine catholytes for non-aqueous redox flow batteries” (University of Kentucky Research Foundation, priority 2015, dated 2018)
